Consider 20 molecules from patent US7659267B2, “1,3-Benzothiazinone derivatives, process for producing the same use thereof” (Takeda Pharmaceutical Company Limited, priority 2002, dated 2010).

The subject of data set [1] is primary cardiomyocytes from newborn rats. Briefly: Cardiomyocyte apoptosis inhibitory activity (serum-free culture, viable cell number by WST-8). It counts as cell-based. The note with it: Rattus norvegicus, 96 h, mean of three independent experiments, concentration required to increase the mean viable cell number by 50% vs. no test compound, serum-free Medium 199, 4 days, read-out: Minimum Effective Concentration. The text has this: Cardiomyocyte Apoptosis Inhibitory Activity
Newborn rats (within 1 day after birth) were obtained from pregnant Wistar rats purchased from Charles River Japan, Inc., anesthetized under ether, and sterilized with 70% ethanol. Then the heart was excised with tweezers. The excised heart was washed with a phosphate buffered saline (T900; manufactured by Takara) and cut into pieces with surgical scissors. The tissue pieces were washed 4 to 5 times with a phosphate buffered saline to remove a majority of blood-derived non-myocardial cells. To the tissue pieces derived from 10 newborns, 5 ml of enzyme solution [solution prepared by dissolving trypsin (1.25 mg)(manufactured by Difco) and collagenase (0.25 mg)(manufactured by Sigma) in phosphate buffered saline (PBS)(1 ml)] was added and the mixture was stirred with a stirrer for 15 minutes while maintaining at 37° C. After 2.5 ml of the enzyme solution was added thereto, the mixture was stirred for further 15 minutes. This procedure was repeated twice. Subsequently, Medium 199 (manufactured by Gibson) containing 10% fetal calf serum (manufactured by Biowiker) was added in a half volume of the enzyme solution to terminate the enzyme reaction. The cells were filtered through a cell strainer (manufactured by Falcon) and then centrifuged at 400×g for 5 minutes to collect the cells.
The cells thus collected from the 10 newborns were suspended in 50 ml of Medium 199 containing 10% fetal calf serum. The suspension was plated onto 100 mm Petri dishes (manufactured by Iwaki) in a volume of 10 ml each/dish and cultured for 1 hour in a CO2 incubator set at 5% CO2 and 37° C. The cells were then recovered, filtered through a cell strainer and centrifuged at 400×g for 5 minutes to collect the primary cardiomyocytes derived from the newborn rats.
Then, the cardiomyocytes from the newborn rats (10) were suspended in 2 ml of hypotonic solution [prepared by dissolving NH4Cl (8.29 g), KHCO3 (1.0 g), 37 mg of EDTA/2Na (disodium ethylenediaminetetraacetate)(manufactured by Dojin Chemical Laboratory) in water (1 L)] and the suspension was allowed to stand for 3 minutes to disrupt erythrocytes. After 10 ml of Medium 199 containing 10% fetal calf serum was added thereto, the mixture was centrifuged at 400×g for 5 minutes to collect the primary cardiomyocytes from newborn rats. The cells were suspended in Medium 199 containing 10% fetal calf serum. The suspension was then filtered through a cell strainer. An aliquot of the resulting cardiomyocyte suspension was taken and 0.3% trypan blue was added thereto. The mixture was mildly mixed and the number of cardiomyocytes was counted with a hemocytometer.
The primary cardiomyocytes from the newborn rats were suspended at a density of 3×10^6 cells/ml in Medium 199 containing 10% fetal calf serum. The suspension was plated onto a 96-well plate in a volume of 0.1 ml/well, followed by incubation in a CO2 incubator set at 5% CO2 and 37° C. for a day. After the plate was stirred with a micromixer (manufactured by Taiyo Kagaku Kogyo), the medium was exchanged 3 times with serum-free Medium 199 and then test compounds were added thereto. The cells were cultured for further 4 days to induce apoptosis. Subsequently, fetal calf serum was added thereto at a concentration of 10%, and the cells were further cultured for about 17 hours in a CO2 incubator set at 5% CO2 and 37° C. The number of viable cells was determined with Cell Counting Kit (manufactured by Dojin Chemical Laboratory) using as a chromogen WST-8 [2-(2-methoxy-4-nitrophenyl)3-(4-nitrophenyl)-5-(2,4-disulfophenyl)-2H-tetrazolium, monosodium salt] to assess the cardiomyocyte apoptosis inhibitory activity.
The experiment described above was triplicated in an independent manner.
In the TABLE, the minimum effective concentration is defined as the concentration of the test compound required to increase the mean viable cell number by 50% as compared to that in the absence of any test compound.

Data set [2] deals with antioxidant response element (ARE) of rat glutathione S-transferase Ya subunit gene in Rat H9c2 cells. Briefly: Antioxidant response element (ARE)-dependent transcriptional activation activity (luciferase reporter). The conditions noted are these: concentration causing luminescence of 200% of test compound-free group (100%); H9c2 cells with pGL3-ARE reporter, about 24 hours. It counts as cell-based. The text has this:
Antioxidant Response Element (ARE)-dependent Transcriptional Activation Activity
(1) Construction of Luciferase Reporter Vector Bearing Antioxidant Response Element (ARE)
ARE-containing luciferase reporter vectors pGL3-ARE and pGL3-ARE 694G were constructed based on The Journal of Biological Chemistry, 266, 11632, 1991 and The Journal of Biological Chemistry, 275, 40134, 2000, by synthesizing ARE (SEQ ID NO: 1) for rat glutathione S-transferase Ya subunit gene and mutated ARE, i.e., mutant ARE (A694G)(SEQ ID NO: 2) oligonucleotide and then transfecting them to the NheI/BglII site of pGL3-Promoter Vector (manufactured by Promega Corp.), respectively.
(2) Assay for Antioxidant Response Element (ARE)-dependent Transcriptional Activation Activity
Rat H9c2 cells were suspended in Dulbecco's modified Eagle's medium (10% FBS, D-MEM medium) containing […] heat-inactivated fetal calf serum in 7×10^4 cells/ml. […] After allowing to stand for 30 minutes, fluorescence levels by luciferase were determined using a WALLAC ARVO SX (manufactured by Perkin-Elmer). Taking the emitted luminescence of test compound-free group as 100%, the ARE-dependent transcriptional activation was shown in terms of the concentration of test compound, which caused to emit the luminescence of 200% (EC200: μM).
Background: A reporter such as luciferase makes a cellular process visible.

For the molecule `O=c1nc(C2CC2)sc2ccccc12` [Example 1, 2-Cyclopropyl-4H-1,3-benzothiazin-4-one], the melting point – broadly, the temperature of the solid-liquid transition – lay within 119.5 to 119.6 °C. Besides, the minimal effective concentration in data set [1] amounted to 0.072 µM.
Consider `O=C1NC(=C2CCC2)Sc2ccccc21` [Example 2, 2-Cyclobutylidene-2,3-dihydro-4H-1,3-benzothiazin-4-one], for which the melting point was 146.7 to 149.4 °C. The minimal effective concentration in data set [1] turned out to be 0.02 µM.
Take `O=C1NC(=C2CCCC2)Sc2ccccc21` [Example 3, 2-Cyclopentylidene-2,3-dihydro-4H-1,3-benzothiazin-4-one]: the melting point was in the range of 190.4 to 191.4 °C. In data set [1], the minimal effective concentration was 0.047 µM.
Molecule `O=C1NC(=C2CCCCC2)Sc2ccccc21` [Example 4, 2-Cyclohexylidene-2,3-dihydro-4H-1,3-benzothiazin-4-one] came in with a melting point of 145.6 to 147.1 °C. In addition, in data set [1], the minimal effective concentration is 0.042 µM.
The molecule `CC(C)=C1NC(=O)c2ccccc2S1` [Example 5, 2-Isopropylidene-2,3-dihydro-4H-1,3-benzothiazin-4-one] yielded a melting point of 187.1 to 188.3 °C.
Still for that read-out and setting: next, `O=C(O)CCc1cccc(-c2nc(=O)c3ccccc3s2)c1` [Example 7, 3-[3-(4-Oxo-4H-1,3-benzothiazin-2-yl)phenyl]propionic acid]: 179.8 to 180.2 °C.
On to `N#Cc1cccc(-c2nc(=O)c3ccccc3s2)c1` [Example 8, 2-(3-Cyanophenyl)-4H-1,3-benzothiazin-4-one], for which the melting point lay within 199.6 to 199.7 °C. For the same molecule, in data set [1], the minimal effective concentration stood at 0.025 µM.
In the case of `O=c1nc(-c2ccc(C(F)(F)F)cc2)sc2ccccc12` [Example 9, 2-(4-Trifluoromethylphenyl)-4H-1,3-benzothiazin-4-one], the melting point fell in the range of 122.5 to 122.6 °C. In data set [1], the minimal effective concentration came to 0.088 µM.
`CC(=O)c1ccc(-c2nc(=O)c3ccccc3s2)cc1` [Example 10, 2-(4-Acetylphenyl)-4H-1,3-benzothiazin-4-one] showed a melting point of 197.5 to 197.6 °C. For the same molecule, the minimal effective concentration in data set [1] came out at 0.062 µM.
`O=c1nc(-c2cccc(Br)c2)sc2ccccc12` [Example 11, 2-(3-Bromophenyl)-4H-1,3-benzothiazin-4-one] had a melting point of 161.6 to 161.7 °C.
Still for that read-out and setting: next, `O=c1nc(-c2ccc(O)cc2)sc2ccccc12` [Example 12, 2-(4-Hydroxyphenyl)-4H-1,3-benzothiazin-4-one]: 275 °C (dec.).
In the case of `CC(=O)Nc1cccc(-c2nc(=O)c3ccccc3s2)c1` [Example 13, N-[3-(4-Oxo-4H-1,3-benzothiazin-2-yl)phenyl]acetamide], the minimal effective concentration in data set [1] turned out to be 0.062 µM.
In the case of `CC(=O)Nc1ccc(-c2nc(=O)c3ccccc3s2)cc1` [Example 16, N-[4-(4-Oxo-4H-1,3-benzothiazin-2-yl)phenyl]acetamide], the melting point lay in the range of 231.4 to 231.5 °C. Also, the minimal effective concentration in data set [1] was determined as 0.021 µM.
As to `O=c1nc(-c2ccc(-c3ccccc3)cc2)sc2ccccc12` [Example 18, 2-(1,1′-Biphenyl-4-yl)-4H-1,3-benzothiazin-4-one], the minimal effective concentration in data set [1] is 0.083 µM.
For `O=c1nc(-c2ccccc2C(F)(F)F)sc2ccccc12` [Example 19, 2-(2-Trifluoromethylphenyl)-4H-1,3-benzothiazin-4-one], the melting point was in the range of 139.6 to 139.8 °C.
`O=c1nc(-c2cccc(C(F)(F)F)c2)sc2ccccc12` [Example 20, 2-(3-Trifluoromethylphenyl)-4H-1,3-benzothiazin-4-one] came in with a melting point of 114.6 to 114.7 °C. Also, the EC200 in data set [2] was determined as 1.5 µM.
In turn, `COC(=O)c1cccc(-c2nc(=O)c3ccccc3s2)c1` [Example 21, Methyl 3-(4-oxo-4H-1,3-benzothiazin-2-yl)benzoate] yielded a melting point of 164.3 to 164.4 °C.
With `COC(=O)C(Cc1cccc(-c2nc(=O)c3ccccc3s2)c1)NC(=O)c1ccccc1` (centres unmarked) [Example 22, Methyl 2-(benzoylamino)-3-[3-(4-oxo-4H-1,3-benzothiazin-2-yl)phenyl]propionate], the melting point lay in the range of 130.9 to 131 °C.
Still for that read-out and setting: next, `Cc1cc(Cl)ccc1-c1nc(=O)c2ccccc2s1` [compound 14, 2-(4-Chloro-2-methylphenyl)-4H-1,3-benzothiazin-4-one]: 134.1 to 134.2 °C; `CCNc1cc(-c2nc(=O)c3ccccc3s2)ccc1C(=O)OC` [compound 15, Methyl 2-(ethylamino)-4-(4-oxo-4H-1,3-benzothiazin-2-yl)benzoate]: 170.8 to 178.2 °C.
